Assay [1] concerns SCC2095, MDA-MB-231 and SCM-1 cells. The assay can be described thus: Cell viability (MTT) assay, cancer cell lines (summary). The assay is classed as cell-based. As to conditions: Homo sapiens; SCC2095, MDA-MB-231, SCM-1; read-out: IC50 of cytotoxicity, range over cancer cell lines. The source says: Human breast cancer MDA-MB-231 cells and gastric cancer SCM-1 cells were purchased from the American Type Culture Collection (Manasas, VA, USA). SCC2095 human oral cancer cells were kindly provided by Professor Susan R. Mallery (The Ohio State University). Normal human lung fibroblasts (NHLFs; CC-2512) were purchased from the Lonza (Walkersville, MD, USA). SCM-1 cells were maintained in RPMI-1640 medium (Invitrogen, Carlsbad, CA, USA); MDA-MB-231 and SCC2095 cells were maintained in DMEM/F12 (Invitrogen); and NHLFs were maintained in FGM™-2 medium (Lonza) with 2% serum, supplemented with 10% heat-inactivated foetal bovine serum (FBS; Gibco, Grand Island, NY, USA). All cells were cultured at 37 °C in a humidified incubator containing 5% CO2 and 95% relative humidity.
(§1) To assess cell viability, cells were seeded in three replicates into 96-well plates at a density of 5×10^3/well for 24 h following incubation with compounds at the indicated concentrations. Then, cell viability was assessed with 3–(4,5-dimethylthiazol-2-yl)-2,5-diphenyltetrazolium bromide (MTT) solution (0.5 mg/mL) for 4h as described previously. After removing the medium, 200 µL of DMSO was added, and then the absorbance was measured at 570 nm using a plate reader (BMG LABTECH, Germany).

For assay [2], the target named is T1, HDAC6 (Homo sapiens, UniProt Q9UBN7).
T1 sequence (Q9UBN7 1-1215): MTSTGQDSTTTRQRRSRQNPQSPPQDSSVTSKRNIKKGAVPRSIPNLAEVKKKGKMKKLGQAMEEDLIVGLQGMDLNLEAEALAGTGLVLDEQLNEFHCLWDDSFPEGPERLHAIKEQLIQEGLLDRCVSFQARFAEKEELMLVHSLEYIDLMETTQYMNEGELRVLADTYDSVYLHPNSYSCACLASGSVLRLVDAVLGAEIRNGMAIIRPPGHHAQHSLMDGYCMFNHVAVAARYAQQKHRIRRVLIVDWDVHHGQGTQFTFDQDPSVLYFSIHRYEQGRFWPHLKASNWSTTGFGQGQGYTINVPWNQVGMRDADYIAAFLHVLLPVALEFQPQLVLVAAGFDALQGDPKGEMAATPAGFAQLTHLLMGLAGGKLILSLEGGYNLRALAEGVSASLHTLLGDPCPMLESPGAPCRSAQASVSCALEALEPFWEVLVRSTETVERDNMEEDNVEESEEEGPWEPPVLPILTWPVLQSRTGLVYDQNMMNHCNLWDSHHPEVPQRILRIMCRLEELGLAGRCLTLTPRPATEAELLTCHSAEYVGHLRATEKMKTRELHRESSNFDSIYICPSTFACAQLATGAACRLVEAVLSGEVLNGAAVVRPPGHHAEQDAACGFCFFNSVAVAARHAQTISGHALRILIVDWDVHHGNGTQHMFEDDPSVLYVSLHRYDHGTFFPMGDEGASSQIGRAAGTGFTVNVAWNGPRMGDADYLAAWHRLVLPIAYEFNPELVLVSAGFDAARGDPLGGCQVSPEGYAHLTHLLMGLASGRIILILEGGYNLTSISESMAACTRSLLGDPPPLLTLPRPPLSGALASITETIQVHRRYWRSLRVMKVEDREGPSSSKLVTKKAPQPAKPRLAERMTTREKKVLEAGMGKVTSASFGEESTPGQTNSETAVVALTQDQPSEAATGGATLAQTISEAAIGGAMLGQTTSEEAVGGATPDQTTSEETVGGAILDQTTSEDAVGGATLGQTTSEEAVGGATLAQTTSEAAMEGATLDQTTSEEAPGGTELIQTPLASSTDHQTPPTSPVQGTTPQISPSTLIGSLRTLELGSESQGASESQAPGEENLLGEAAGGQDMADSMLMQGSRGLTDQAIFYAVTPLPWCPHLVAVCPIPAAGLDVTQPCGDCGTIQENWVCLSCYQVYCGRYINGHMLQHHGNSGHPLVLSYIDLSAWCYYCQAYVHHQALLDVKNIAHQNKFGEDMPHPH
The assay can be described thus: HDAC inhibition assay, HDAC6.

For assay [3], the system named is SCC2095 cells. The assay can be described thus: Western blotting of caspase- and HDAC-related proteins. The class given is cell-based, human. Conditions: western blot. The procedure: The protein expression was performed as previously described. Proteins were resolved on 10% SDS-PAGE, then transferred to PVDF (Bio-Rad) membranes. After blocking with 5% skimmed milk in PBS containing 0.1% Tween 20, the membranes were probed with primary antibodies against interest target proteins at 4 °C overnight. The following primary antibodies were used: […], cleaved caspase 9, acetyl α-tubulin, Hsp90, Histone H2A.X, p38, p-^180Thr/^182Tyr p38, PPARγ, and p21 were purchased from Cell Signalling Technologies (Beverly, MA, USA); pro-caspase 8, Millipore; β-actin, Sigma-Aldrich (St. Louis, MO, USA). Then, the immunoblots were washed and exposed to HRP-conjugated secondary antibodies at room temperature for 1 h. The immunoblots were examined by enhanced chemiluminescence.

The subject of assay [4] is SCC2095 cells. The experiment in a line: Annexin V-FITC/PI flow cytometric apoptosis analysis. The class given is cell-based, human. As to conditions: for apoptosis rate: 48 h. The procedure:
Cells (2 × 10^5) were treated with tested compounds in 6-well plates for 24 h or 48 h, then washed with ice-cold PBS twice and harvested with trypsin. Cells were incubated with 5 µL Annexin V- FITC/PI (BD Pharmingen, San Diego) for 15 min in the dark condition. Then, the cells were measured by BD FACSCanto flow cytometer (BD, Franklin Lakes, NJ). For ROS determination, DMSO or H2O2 or compound 7 g-treated cells were stained with the ROS probe (DCFH-DA; 5 µM) and detected the DCFH-DA fluorescence.
On the technique in general: In flow cytometry, cells or beads pass a laser one at a time.

Assay [5] concerns the target HDAC9 (Homo sapiens, UniProt Q9UKV0). The experiment in a line: HDAC inhibition assay, HDAC9.
In assay [6] the test system is SCC2095 cells. The experiment in a line: Cell viability (MTT) assay, SCC2095. Conditions: Homo sapiens, 48 h, human oral cancer cells, read-out: IC50 of cytotoxicity SCC2095. The assay is classed as cell-based. The procedure:
Human breast cancer MDA-MB-231 cells and gastric cancer SCM-1 cells were purchased from the American Type Culture Collection (Manasas, VA, USA). SCC2095 human oral cancer cells were kindly provided by Professor Susan R. Mallery (The Ohio State University).
as §1

Sequence of HDAC9 (Q9UKV0 whole entry): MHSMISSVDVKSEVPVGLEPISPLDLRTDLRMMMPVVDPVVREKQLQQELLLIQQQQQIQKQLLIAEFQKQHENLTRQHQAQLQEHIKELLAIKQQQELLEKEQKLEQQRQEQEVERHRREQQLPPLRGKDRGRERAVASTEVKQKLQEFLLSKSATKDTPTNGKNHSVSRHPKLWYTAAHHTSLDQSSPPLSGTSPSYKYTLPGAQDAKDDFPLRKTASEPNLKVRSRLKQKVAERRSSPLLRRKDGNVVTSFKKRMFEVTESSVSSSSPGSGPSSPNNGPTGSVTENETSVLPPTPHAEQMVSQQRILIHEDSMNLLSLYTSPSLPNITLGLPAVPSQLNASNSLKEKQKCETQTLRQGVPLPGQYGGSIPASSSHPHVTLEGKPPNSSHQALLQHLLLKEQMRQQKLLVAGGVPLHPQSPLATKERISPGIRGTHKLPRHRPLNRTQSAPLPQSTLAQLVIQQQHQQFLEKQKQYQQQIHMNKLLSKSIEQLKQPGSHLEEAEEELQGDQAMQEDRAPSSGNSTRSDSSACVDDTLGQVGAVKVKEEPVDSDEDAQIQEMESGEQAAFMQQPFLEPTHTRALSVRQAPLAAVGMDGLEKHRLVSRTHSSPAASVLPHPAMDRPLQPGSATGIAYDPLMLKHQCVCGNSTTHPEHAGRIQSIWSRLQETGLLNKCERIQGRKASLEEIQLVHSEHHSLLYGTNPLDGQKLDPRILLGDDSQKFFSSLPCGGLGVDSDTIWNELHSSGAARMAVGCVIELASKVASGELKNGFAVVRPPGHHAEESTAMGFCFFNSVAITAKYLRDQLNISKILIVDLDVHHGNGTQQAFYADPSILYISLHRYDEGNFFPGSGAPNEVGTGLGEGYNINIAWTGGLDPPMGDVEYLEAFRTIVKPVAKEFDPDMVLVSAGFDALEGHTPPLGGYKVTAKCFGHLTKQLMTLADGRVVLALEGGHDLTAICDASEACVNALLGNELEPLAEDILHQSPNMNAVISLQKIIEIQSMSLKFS

In general, IC50 refers to the concentration at which inhibition is half-maximal. For `NC(=NO)c1ccc2c(c1)N(Cc1ccc(C(=O)NO)c(-c3ccccc3)c1)c1ccccc1S2` [Compound 7g, N-Hydroxy-4-[2-(N’-hydroxycarbamimidoyl)-10H-phenothiazin-10-yl]methyl-2-phenylbenzamide], the IC50 in assay [1] was 3000 to 8400 nM; in assay [2] it was 970 ± 50 nM; in assay [5], 40 ± 1 nM; in assay [6] it was 3000 ± 300 nM. In addition, the “levels of Hsp90” value in assay [3] (SCC2095, 24 h) is reported as “increased”. The “levels of PPARγ” value in assay [3] (SCC2095, 24 h) is “increased”. For the same molecule, the “levels of cleaved caspase 9” value in assay [3] (SCC2095, 24 h) is “up-regulated”. Moreover, the “levels of p21” value in assay [3] (SCC2095, 24 h) is “increased”. Besides, in assay [3] (SCC2095, 24 h), the “levels of pro-caspase 8” value was “down-regulated”. Further, in assay [3] (SCC2095, DNA damage biomarker), the “phosphorylation of Histone H2A.X” value is “increased”. Besides, the “phosphorylation of p38” value in assay [3] (SCC2095, dose-dependent) was “up-regulated”. For the same molecule, the apoptosis rate worked out at 29.2% in assay [4] (1 µM); 35.9% in assay [4] (2.5 µM); 44.4% in assay [4] (5 µM); 78.2% in assay [4] (7.5 µM); 87.1% in assay [4] (10 µM). Moreover, the “percentage of apoptotic cells” value in assay [4] (10 µM, 24 h) is 83.6%.

(Values after PMC11423540, “Synthesis and biological evaluation of ortho-phenyl phenylhydroxamic acids containing phenothiazine with improved selectivity for class IIa histone deacetylases” (Journal of Enzyme Inhibition and Medicinal Chemistry, 2024).)
